Data set [1] in a line: Pharmacokinetics and metabolite formation in rats. As to conditions: rat, in vivo; for AUC(0-t) / half-life: both sexes, po, 12.5 mg/kg; for AUC0-12 M2, percent change relative to Ulixertinib / AUC0-12 M3, percent change relative to Ulixertinib / AUC0-12 M6, percent change relative to Ulixertinib / AUC0-12 Parent, percent change relative to Ulixertinib / Half-life, percent change relative to Ulixertinib / longer mean half-life than ulixertinib: both. The class given is in vivo, rat. Here is the method: Ulixertinib, Formulas 18A, 19A, and 21A were dosed twice daily (12 hours apart, ±30 minutes) for five consecutive days (10 doses/animal) to rats via oral gavage (PO). Each compound was administered at a dose of 12.5 mg/kg to 6 rats (3 male/3 female, N=6 rats/compound). Each compound was formulated in 1% (w/v) carboxymethylcellulose (CMC) in water at a concentration of 1.25 mg/mL. Following the second (p.m.) dose on Day 5, blood samples were collected from each rat at approximately 0.5, 1, 2, 4, 6, 8, and 12 hours post-dose. Blood samples were centrifuged to obtain plasma. Plasma samples were analyzed for concentrations of the dosed compounds and selected metabolites using an established LC-MS/MS method. The lower limit of quantitation of each compound was 1.00 ng/mL. The rat half-life values (determined by non-compartmental analysis using WinNonlin software) for each compound are shown in Table 7, and the areas under curve from time 0 to hour 12 (AUC0-12), calculated using the linear trapezoidal rule, for each dosed compound and selected metabolites are presented in Table 8.

Data set [2] is described as follows: Steady-state exposure of ulixertinib and metabolites in human subjects. Format: in vivo. As to conditions: for % of total Ulixertinib related exposure: day 15, steady state; for AUC at 15 day: in vivo, day 15, non-isotopically enriched ulixertinib and related metabolites, read-out: Steady-State AUC (Mean ± SD). An excerpt:
(§1) The steady state exposure levels of non-isotopically enriched parent ulixertinib and related metabolites in rat (day 5) and human subjects (day 15) is provided in TABLE 1 below: […]

A short description of data set [3]: Steady-state exposure of ulixertinib and metabolites in rat. Format: in vivo. To be noted: for % of total Ulixertinib related exposure: day 5, steady state; for AUC at 5 day: in vivo, day 5, non-isotopically enriched ulixertinib and related metabolites, read-out: Steady-State AUC (Mean ± SD).
From the text: as §1

Data set [4] in a line: Half-life determination in human liver microsomes. As to conditions: for half-life at 1 μM: human, NADPH. Format: in vitro ADME. Here is the method: Human microsomes from a pool of 10 donors was obtained from a commercial source. Microsomes prepared in potassium phosphate buffer were spiked with ulixertinib, Formula 18, Formula 19, and Formula 21 individually in replicates of six at a final concentration of 1 μM. NADPH was used to initiate the experiment; a control of minus NADPH (minus cofactor) was also run in parallel to the human liver microsome stability. After spiking with test article, microsome replicates were placed in a 37° C. incubator with the following time course: 0, 5, 10, 15, 20, 30, 45 and 60 minutes. Samples were extracted with a protein precipitation quench consisting of ice cold acetonitrile containing internal standard (tolbutamide). Samples were analyzed for ulixertinib, Formula 18, Formula 19, and Formula 21. The half-lives of ulixertinib, Formula 18, Formula 19, and Formula 21 were characterized by the […] to determine the elimination rate (ke) and using the formula described below.
[formula] • ke (elimination rate): the slope of ln(percent remaining) vs time (in minutes)

The subject of a further data set is A375 cells. The data set is described as follows: A375 proliferation assay (Cell TiterGlo). The class given is cell-based. As to conditions: Homo sapiens, A-375, 72 hours. Here is the method:
Mechanism of Action (MOA) Cell Assay—A375 Cell Proliferation, pERK/ERK and pRSK/RSK Analysis:
Briefly, A375 cells were plated at 10,000 cells/well in three 96 well plates. Plates were incubated overnight at 37° C. and allowed to recover. Cells were washed with 150 μL of DPBS and 90 μL of fresh media was added to each well. The cells were then treated with a dose response of the selected compounds. Compounds were diluted from stock concentrations (10 mM in DMSO). Serial dilutions were made in DMSO, yielding 8 total different concentrations per compound. At time of compound addition, the control plate was analyzed using Cell TiterGlo to set baseline for proliferation. Compound treated cells were allowed to grow at 37° C./5% CO2 for 72 hours then analyzed using Cell TiterGlo according to kit protocol.

The subject of a further data set is pRSK/RSK in A375 cells. The data set can be described thus: A375 pRSK/RSK dose response study (ELISA). The class given is cell-based. To be noted: Homo sapiens, A-375, pRSK and total RSK ELISA. Here is the method: A375 pRSK/RSK Dose Response Study
Briefly, A375 cells were plated at 30,000 cells/well in 2×96 well plates, allowed to recover overnight, washed and fed fresh media the next day then treated with a dose response of the selected compounds. Following the determined pretreatment with the compounds at 37° C./5% CO2 the media was aspirated, and cells lysed with cold, complete MSD lysis buffer. pRSK and total RSK were analyzed using CST/PathScan pRSK and total RSK ELISAS according to the respective kit protocols. All samples were analyzed at 90% of remaining sample in pRSK and 10% of remaining sample in total RSK ELISA, which was performed following kit protocols.

The subject of data set [5] is phospho-ERK1/2 to total ERK1/2 in A375 cells. The data set is described as follows: A375 pERK/ERK dose response study (MSD). Format: cell-based. To be noted: Homo sapiens, A-375, ratio of phospho-ERK1/2 to total ERK1/2. Here is the method: A375 pERK/ERK Dose Response Study:
Briefly, A375 cells were plated at 30,000 cells/well in 2×96 well plates, allowed to recover overnight, washed and fed fresh media the next day then treated with a dose response of the selected compounds. Following the determined pretreatment time with the compounds at 37° C./5% CO2, the media was aspirated, and cells lysed with cold, complete MESO Scale Discovery (MSD) lysis buffer. pERK and total ERK1/2 levels were measured using MESO Scale Discover Phospho(Thr202/Tyr204; Thr185/Tyr187)/Total ERK1/2 kits. The protocol and all reagents were provided in the kit. All wells were blocked with 150 μl Blocking Solution for one hour. […] of lysis buffer was added per well and incubated overnight at 4° C. Following the overnight incubation, the wells were washed three times with Tris Wash buffer, then […] of 1× Detection Antibody was added per well and incubated at room temperature for one hour with vigorous shaking. All wells were then washed three times with Tris Wash Buffer before 150 μl of 1× Read Buffer was added per well and the plates read using the MSD Sector Imager. Data were calculated as a ratio of phospho-ERK1/2 to total ERK1/2 to allow for normalization of the samples.

The source of these data is patent US20250026733A1, “DEUTERATED ANALOGS OF PYROLE INHIBITORS OF ERK, SYNTHESIS THEREOF AND INTERMEDIATES THERETO” (BIOMED VALLEY DISCOVERIES, INC., priority 2022, published 2025).

Where two headings read alike, the source gives them in different places. Marks after values point to notes of the source that are not given here.

Regarding `Cl.[2H]C([2H])([2H])C(Nc1cc(-c2c[nH]c(C(=O)N[C@H](CO)c3cccc(Cl)c3)c2)c(Cl)cn1)C([2H])([2H])[2H]` [Formula 19A], in data set [1], the AUC(0-t) stood at 199000 ng·h/mL; the half-life is 4 h; the “AUC0-12 M2, percent change relative to Ulixertinib” value was “(−17%^a)”; the “AUC0-12 M3, percent change relative to Ulixertinib” value is recorded as “(−84%^a)”. Also, in data set [1], the “AUC0-12 M6, percent change relative to Ulixertinib” value was “(−35%)”; the “AUC0-12 Parent, percent change relative to Ulixertinib” value is reported as “(+15%^a)”; the “Half-life, percent change relative to Ulixertinib” value is recorded as “(+9%^a)”; the “longer mean half-life than ulixertinib” value is 9%.
Consider `C[C@H](Nc1cc(-c2c[nH]c(C(=O)N[C@H](CO)c3cccc(Cl)c3)c2)c(Cl)cn1)C(=O)O` [Formula 37], for which, in data set [2], the “% of total Ulixertinib related exposure” value is listed as 8.2% and the AUC at 15 day came to 6500 ± 5500 ng·h/mL. Moreover, in data set [3], the “% of total Ulixertinib related exposure” value was 0.2% and the exposure (AUC) at 5 day worked out at 400 ± 200 ng·h/mL.
Consider `C[C@H](CO)Nc1cc(-c2c[nH]c(C(=O)N[C@H](CO)c3cccc(Cl)c3)c2)c(Cl)cn1` [Formula 34], for which, in data set [2] (day 15), the “Formula 34/Ulixertinib steady-state AUC ratio” value came out at 1.3. Besides, in data set [2], the “% of total Ulixertinib related exposure” value was found to be 49.9% and the AUC at 15 day was 39400 ± 12000 ng·h/mL. In data set [3] (day 5), the “Formula 34/Ulixertinib steady-state AUC ratio” value is on record as 0.09. In data set [3], the “% of total Ulixertinib related exposure” value turned out to be 8.1% and the AUC at 5 day was determined as 15900 ± 4700 ng·h/mL.
Take `C[C@@H](CO)Nc1cc(-c2c[nH]c(C(=O)N[C@H](CO)c3cccc(Cl)c3)c2)c(Cl)cn1` [Formula 35]: in data set [2], the “% of total Ulixertinib related exposure” value is listed as 4.3% and the AUC at 15 day is 3400 ± 2300 ng·h/mL. In data set [3], the “% of total Ulixertinib related exposure” value is given as 0.6% and the AUC at 5 day was determined as 1200 ± 200 ng·h/mL.
`Cl.[2H]C([2H])([2H])C([2H])(Nc1cc(-c2c[nH]c(C(=O)N[C@H](CO)c3cccc(Cl)c3)c2)c(Cl)cn1)C([2H])([2H])[2H]` [Formula 18A]: in data set [1], the AUC(0-t) turned out to be 228000 ng·h/mL; the half-life is 4.18 h; the “AUC0-12 M2, percent change relative to Ulixertinib” value is on record as “(−4%^a)”; the “AUC0-12 M3, percent change relative to Ulixertinib” value is listed as “(−75%^a)”. Besides, in data set [1], the “AUC0-12 M6, percent change relative to Ulixertinib” value is on record as “(+25%^a)”; the “AUC0-12 Parent, percent change relative to Ulixertinib” value is recorded as “(+32%^a)”; the “Half-life, percent change relative to Ulixertinib” value is given as “(+14%^a)”; the “longer mean half-life than ulixertinib” value was 14%.
On to `[2H]C(C)(C)Nc1cc(-c2c[nH]c(C(=O)N[C@H](CO)c3cccc(Cl)c3)c2)c(Cl)cn1` [Formula 21, 4-(5-chloro-2-((propan-2-yl-2-d1)amino)pyridin-4-yl)-N-(1-(3-chlorophenyl)-2-hydroxyethyl)-1H-pyrrole-2-carboxamide], for which, in data set [4] (Table 5), the “longer half-life than ulixertinib” value amounted to 30%. The half-life at 1 μM in data set [4] (Rep 1, read-out: Half-life, t½, Rep 1) is 1.01 h; in data set [4] (Rep 2, read-out: Half-life, t½, Rep 2) it was 1.26 h; in data set [4] (Rep 3, read-out: Half-life, t½, Rep 3), 1.07 h; in data set [4] (Rep 4, read-out: Half-life, t½, Rep 4), 1.02 h; in data set [4] (Rep 5, read-out: Half-life, t½, Rep 5), 0.992 h; in data set [4] (Rep 6, read-out: Half-life, t½, Rep 6), 1.01 h. Further, the half-life at 1 μM in data set [4] (six replicates, read-out: Half-life, t½, Mean ± SD) is 1.06 ± 0.102 h. Moreover, the “Half-life, % change relative to ulixertinib” value in data set [4] (mean) is on record as “(+30%)”. For the same molecule, the IC50 with A375 cells was 310 nM; in the data set with pRSK/RSK in A375 cells, 37 nM; in data set [5], 64 nM.
